Test results as given in PubChem BioAssay AID1845204 (Molecular Pharmacology Branch, DTP, NCI, 2023).
pIC50: −log10 of the molar value. The source made the active and inactive calls. How the source made its calls: active means viability on the fitted dose curve at most 10% of control; inactive means the rest.

Test system: HSSY-II tumor spheroid viability
Assay: Anticancer human tumor HSSY-II cell line growth inhibition;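 on pIC50: spheroids exposed to compounds for seven days before reading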;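 on viability, T/C: spheroids exposed to compounds for seven days before reading; percent of DMSO vehicle control viability so 100% = untreated level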
Conditions: spheroids with HUVEC and MSC; for pIC50: curve of first compound; for viability, T/C: stronger effect = lower value
Summary of the method: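 Complex tumor spheroids combined malignant cells with endothelial cells and mesenchymal stem cells. DNA-damaging drugs and DNA repair inhibitors were tested alone and in combination, at half-log dilutions down from clinical Cmax (top 10 microM if Cmax unknown), 0.25% DMSO final.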

[1] = second compound 30 pM, first compound 0.00949 µM
[2] = second compound 30 pM, first compound 0.03 µM
[3] = second compound 30 pM, first compound 0.0949 µM
[4] = second compound 30 pM, first compound 0.3 µM
[5] = second compound 30 pM, first compound 0.949 µM
[6] = second compound 30 pM, first compound 3 µM
[7] = second compound 94.9 pM, first compound 0.00949 µM
[8] = second compound 94.9 pM, first compound 0.03 µM
[9] = second compound 94.9 pM, first compound 0.0949 µM
[10] = second compound 94.9 pM, first compound 0.3 µM
[11] = second compound 94.9 pM, first compound 0.949 µM
[12] = second compound 94.9 pM, first compound 3 µM
[13] = second compound 0.0003 µM, first compound 0.00949 µM
[14] = second compound 0.0003 µM, first compound 0.03 µM
[15] = second compound 0.0003 µM, first compound 0.0949 µM
[16] = second compound 0.0003 µM, first compound 0.3 µM
[17] = second compound 0.0003 µM, first compound 0.949 µM
[18] = second compound 0.0003 µM, first compound 3 µM
[19] = second compound 0.000949 µM, first compound 0.00949 µM
[20] = second compound 0.000949 µM, first compound 0.03 µM
[21] = second compound 0.000949 µM, first compound 0.0949 µM
[22] = second compound 0.000949 µM, first compound 0.3 µM
[23] = second compound 0.000949 µM, first compound 0.949 µM
[24] = second compound 0.000949 µM, first compound 3 µM
[25] = second compound 0.003 µM, first compound 0.00949 µM
[26] = second compound 0.003 µM, first compound 0.03 µM
[27] = second compound 0.003 µM, first compound 0.0949 µM
[28] = second compound 0.003 µM, first compound 0.3 µM
[29] = second compound 0.003 µM, first compound 0.949 µM
[30] = second compound 0.003 µM, first compound 3 µM

CNCc1ccc(-c2cc(-c3nc(-c4ccc(S(=O)(=O)C(C)C)cc4)cnc3N)on2)cc1 + COc1cc2c(cc1O)CCNC21CSC2c3c(OC(C)=O)c(C)c4c(c3C(COC1=O)N1C(O)C3Cc5cc(C)c(OC)c(O)c5C(C21)N3C)OCO4
pIC50 (second compound 30 pM): 7.50
pIC50 (second compound 94.9 pM): 7.94
pIC50 (second compound 0.0003 µM): > 8.02
pIC50 (second compound 0.000949 µM): > 8.02
pIC50 (second compound 0.003 µM): > 8.02
viability, T/C [1]: 93.8%
viability, T/C [2]: 51.9%
viability, T/C [3]: 7.62%
viability, T/C [4]: 4.24%
viability, T/C [5]: 1.27%
viability, T/C [6]: 0.11%
viability, T/C [7]: 57%
viability, T/C [8]: 15.9%
viability, T/C [9]: 4.64%
viability, T/C [10]: 4.08%
viability, T/C [11]: 1.02%
viability, T/C [12]: 0.1%
viability, T/C [13]: 10.1%
viability, T/C [14]: 5.43%
viability, T/C [15]: 3.66%
viability, T/C [16]: 3.41%
viability, T/C [17]: 0.72%
viability, T/C [18]: 0.12%
viability, T/C [19]: 2.93%
viability, T/C [20]: 2.47%
viability, T/C [21]: 2.03%
viability, T/C [22]: 1.1%
viability, T/C [23]: 0.09%
viability, T/C [24]: 0.15%
viability, T/C [25]: 0.22%
viability, T/C [26]: 0.27%
viability, T/C [27]: 0.21%
viability, T/C [28]: 0.2%
viability, T/C [29]: 0.18%
viability, T/C [30]: 0.25%

Cc1cc(C)c(CNC(=O)c2cc(-c3ccc(CN4CCOCC4)cc3)cc3c2cnn3C2CCCC2)c(=O)[nH]1 + COc1cc2c(cc1O)CCNC21CSC2c3c(OC(C)=O)c(C)c4c(c3C(COC1=O)N1C(O)C3Cc5cc(C)c(OC)c(O)c5C(C21)N3C)OCO4
pIC50 (second compound 30 pM): < 5.00
pIC50 (second compound 94.9 pM): 5.07
pIC50 (second compound 0.0003 µM): > 7.50
pIC50 (second compound 0.000949 µM): > 7.50
pIC50 (second compound 0.003 µM): > 7.50
viability, T/C (second compound 30 pM, first compound 0.0316 µM): 106%
viability, T/C (second compound 30 pM, first compound 0.1 µM): 106%
viability, T/C (second compound 30 pM, first compound 0.316 µM): 108%
viability, T/C (second compound 30 pM, first compound 1 µM): 108%
viability, T/C (second compound 30 pM, first compound 3.16 µM): 107%
viability, T/C (second compound 30 pM, first compound 10 µM): 76.6%
viability, T/C (second compound 94.9 pM, first compound 0.0316 µM): 92.4%
viability, T/C (second compound 94.9 pM, first compound 0.1 µM): 100%
viability, T/C (second compound 94.9 pM, first compound 0.316 µM): 91.3%
viability, T/C (second compound 94.9 pM, first compound 1 µM): 86%
viability, T/C (second compound 94.9 pM, first compound 3.16 µM): 79.4%
viability, T/C (second compound 94.9 pM, first compound 10 µM): 45.1%
viability, T/C (second compound 0.0003 µM, first compound 0.0316 µM): 15.2%
viability, T/C (second compound 0.0003 µM, first compound 0.1 µM): 15.1%
viability, T/C (second compound 0.0003 µM, first compound 0.316 µM): 13.4%
viability, T/C (second compound 0.0003 µM, first compound 1 µM): 11.8%
viability, T/C (second compound 0.0003 µM, first compound 3.16 µM): 12.4%
viability, T/C (second compound 0.0003 µM, first compound 10 µM): 11.8%
viability, T/C (second compound 0.000949 µM, first compound 0.0316 µM): 2.63%
viability, T/C (second compound 0.000949 µM, first compound 0.1 µM): 2.57%
viability, T/C (second compound 0.000949 µM, first compound 0.316 µM): 2.16%
viability, T/C (second compound 0.000949 µM, first compound 1 µM): 2.23%
viability, T/C (second compound 0.000949 µM, first compound 3.16 µM): 2.69%
viability, T/C (second compound 0.000949 µM, first compound 10 µM): 1.43%
viability, T/C (second compound 0.003 µM, first compound 0.0316 µM): 0.15%
viability, T/C (second compound 0.003 µM, first compound 0.1 µM): 0.17%
viability, T/C (second compound 0.003 µM, first compound 0.316 µM): 0.17%
viability, T/C (second compound 0.003 µM, first compound 1 µM): 0.15%
viability, T/C (second compound 0.003 µM, first compound 3.16 µM): 0.17%
viability, T/C (second compound 0.003 µM, first compound 10 µM): 0.22%

Cc1sc2c(c1C)C(c1ccc(Cl)cc1)=NC(CC(=O)Nc1ccc(O)cc1)c1nnc(C)n1-2 (stereo not given) + COc1cc2c(cc1O)CCNC21CSC2c3c(OC(C)=O)c(C)c4c(c3C(COC1=O)N1C(O)C3Cc5cc(C)c(OC)c(O)c5C(C21)N3C)OCO4
pIC50 (second compound 30 pM): 6.97
pIC50 (second compound 94.9 pM): 7.27
pIC50 (second compound 0.0003 µM): > 8.02
pIC50 (second compound 0.000949 µM): > 8.02
pIC50 (second compound 0.003 µM): > 8.02
viability, T/C [1]: 84.8%
viability, T/C [2]: 78.4%
viability, T/C [3]: 53.1%
viability, T/C [4]: 23.3%
viability, T/C [5]: 14.2%
viability, T/C [6]: 7.89%
viability, T/C [7]: 76.4%
viability, T/C [8]: 60.5%
viability, T/C [9]: 40.5%
viability, T/C [10]: 19.5%
viability, T/C [11]: 11.1%
viability, T/C [12]: 4.34%
viability, T/C [13]: 11.4%
viability, T/C [14]: 13.4%
viability, T/C [15]: 10.5%
viability, T/C [16]: 4.16%
viability, T/C [17]: 1.76%
viability, T/C [18]: 0.21%
outcome [19]: active
viability, T/C [20]: 1.98%
outcome [21]: active
viability, T/C [22]: 0.18%
viability, T/C [23]: 0.05%
viability, T/C [24]: 0.12%
viability, T/C [25]: 0.14%
viability, T/C [26]: 0.14%
viability, T/C [27]: 0.17%
viability, T/C [28]: 0.17%
viability, T/C [29]: 0.14%
viability, T/C [30]: 0.27%

Cn1ncnc1[C@H]1c2n[nH]c(=O)c3cc(F)cc(c23)N[C@@H]1c1ccc(F)cc1 + COc1cc2c(cc1O)CCNC21CSC2c3c(OC(C)=O)c(C)c4c(c3C(COC1=O)N1C(O)C3Cc5cc(C)c(OC)c(O)c5C(C21)N3C)OCO4
pIC50 (second compound 30 pM): 7.44
pIC50 (second compound 94.9 pM): > 8.02
pIC50 (second compound 0.0003 µM): > 8.02
pIC50 (second compound 0.000949 µM): > 8.02
pIC50 (second compound 0.003 µM): > 8.02
viability, T/C [1]: 65.3%
viability, T/C [2]: 53.8%
viability, T/C [3]: 32%
viability, T/C [4]: 14.4%
viability, T/C [5]: 9.09%
viability, T/C [6]: 6.64%
viability, T/C [7]: 32.6%
viability, T/C [8]: 25.6%
viability, T/C [9]: 15.6%
viability, T/C [10]: 10.5%
viability, T/C [11]: 8.55%
viability, T/C [12]: 6.28%
viability, T/C [13]: 8.74%
viability, T/C [14]: 9.03%
viability, T/C [15]: 8.23%
viability, T/C [16]: 7.73%
viability, T/C [17]: 6.35%
viability, T/C [18]: 3.6%
viability, T/C [19]: 2.25%
viability, T/C [20]: 1.71%
viability, T/C [21]: 1.81%
viability, T/C [22]: 2.07%
viability, T/C [23]: 0.53%
viability, T/C [24]: 0.15%
viability, T/C [25]: 0.2%
viability, T/C [26]: 0.25%
viability, T/C [27]: 0.2%
viability, T/C [28]: 0.15%
viability, T/C [29]: 0.14%
viability, T/C [30]: 0.26%
